These results are taken from ChEMBL document CHEMBL1127905, “Design and synthesis of a prototype model antagonist of tachykinin NK-2 receptor” (Bioorg Med Chem Lett, 1994).

For the assay, the target named is T1, Substance-K receptor (Homo sapiens) (UniProt P21452).
T1 sequence (whole entry): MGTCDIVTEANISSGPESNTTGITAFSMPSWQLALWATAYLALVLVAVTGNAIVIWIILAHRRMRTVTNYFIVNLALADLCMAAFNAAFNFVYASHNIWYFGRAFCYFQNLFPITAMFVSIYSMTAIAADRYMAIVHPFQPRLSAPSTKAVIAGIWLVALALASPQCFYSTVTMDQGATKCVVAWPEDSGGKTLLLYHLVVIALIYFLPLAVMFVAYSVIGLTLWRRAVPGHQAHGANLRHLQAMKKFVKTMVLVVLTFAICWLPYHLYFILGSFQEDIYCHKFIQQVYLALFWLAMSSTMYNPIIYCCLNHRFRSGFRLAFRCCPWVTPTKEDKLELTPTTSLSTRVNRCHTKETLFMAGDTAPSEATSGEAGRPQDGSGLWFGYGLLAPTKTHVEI
The assay can be described thus: Compound was evaluated for binding affinity to human recombinant Tachykinin receptor 2.

SMILES strings stand for the structures.

In the case of `O=C(Cc1c[nH]c2ccccc12)N[C@@H]1C(=O)N2[C@H](CC[C@H]2C(=O)NCc2ccccc2)C[C@H]1Cc1ccccc1`, the Activity was 3 µM.
